Test results: patent US12378500B2, “Liquid laundry product comprising a fragrance composition comprising isopulegol” (TAKASAGO INTERNATIONAL CORPORATION, priority 2016, dated 2025)

Test system: human brain
Assay: CNV (Contingent Negative Variation) method, inhalation of fragrance compositions by a panel of subjects
Assay type: in vivo
Settings: 2 wt % isopulegol added to fragrance A; fragrance A as control; inhaled; panel of 7 subjects; FIG. 3
Experimental: The stimulating effect of isopulegol was determined by the CNV (Contingent Negative Variation) method as described below and briefly summarized in FIGS. 1 and 2.
The CNV was measured using a digital electroencephalograph BIOSEMi (registered trademark). Electrodes for the CNV measurement were placed at Fp1, Fp2, F4, Fz, F3, T7, C3, Cz, C4, T8, P4, Pz, P3, O1, Oz, O2 according to the international 10-20 system, electrodes for ear lobes were set to indifferent electrodes, and brain waves were recorded at a time constant of 5.0 seconds referenced to the linked earlobes. In order to check artifacts of eye movement to a brain wave, vertical and horizontal movements of the left eye were also recorded.
Confirmation of a stimulative effect of a sample was conducted by steps of delivering a warning stimulus S1 (tone of 60-65 dB), followed 2300 ms later by a second stimulus S2 (light source). Test fragrance compositions were inhaled from jars disposed a few (e.g. 15-20) centimetres from the subjects' nose during each period of acquisition. […] The base line was determined from an average voltage of a brain wave in a time period of 500 ms before S1. The evaluation of the CNV waveform was conducted according to the method of Tori et al. (op. cit.), in which CNV was evaluated by the area (unit: ms×[…]) of an early component between 400 ms to 1,000 ms after the warning sound stimulus (S1).

## C=C(C)[C@@H]1CC[C@@H](C)C[C@H]1O (racemic) [isopulegol]
  CNV activity (area under the curve) of fragrance A + isopulegol versus fragrance A alone: enhances the CNV activity of fragrance A
